Laboratory results: article PMC3840147 (ACS chemical biology, 2013)

Key:
[1] = target: T1, SENP7 (Homo sapiens, UniProt Q9BQF6); test: DUB-Glo bioluminescent peptide substrate assay, SENP7; type: biochemical; conditions: read-out: SENP7 IC50
T1 sequence (Q9BQF6 760-1050 limits assumed): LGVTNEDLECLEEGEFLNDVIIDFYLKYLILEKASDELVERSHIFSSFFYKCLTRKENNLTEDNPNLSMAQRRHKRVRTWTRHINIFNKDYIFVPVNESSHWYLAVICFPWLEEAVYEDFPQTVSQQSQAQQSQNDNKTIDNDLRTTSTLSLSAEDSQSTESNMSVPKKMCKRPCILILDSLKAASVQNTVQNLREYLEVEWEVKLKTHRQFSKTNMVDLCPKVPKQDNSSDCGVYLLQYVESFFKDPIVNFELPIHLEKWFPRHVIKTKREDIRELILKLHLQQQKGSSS

[2] = system: HeLa cells; test: Cellular SENP inhibition: SUMOylated proteins in HeLa cells by Western blot; type: cell-based; conditions: increasing concentrations, 48 h
[3] = target: T2, SENP2 (Homo sapiens, UniProt Q9HC62); test: DUB-Glo bioluminescent peptide substrate assay, SENP2; type: biochemical; conditions: read-out: SENP2 IC50
T2 sequence (Q9HC62 364-589): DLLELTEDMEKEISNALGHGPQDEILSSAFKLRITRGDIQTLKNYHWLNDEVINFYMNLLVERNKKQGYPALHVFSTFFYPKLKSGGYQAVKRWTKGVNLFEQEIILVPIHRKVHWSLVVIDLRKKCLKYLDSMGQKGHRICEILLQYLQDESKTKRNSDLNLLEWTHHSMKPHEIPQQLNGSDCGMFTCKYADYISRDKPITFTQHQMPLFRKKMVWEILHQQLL

IC50 [1] [µM]	IC50 [3] [µM]	Structure (SMILES)	accumulation of SUMO-1 conjugates in cells [2]	accumulation of SUMO-2/3 conjugates in cells [2]
2.8 ± 1.6		Nc1c(N=Nc2ccccc2)cc(S(=O)(=O)O)c2ccccc12 [SPI-08]		
		Nc1ccc2ccccc2c1N=Nc1ccc(/C=C/c2ccc(N=Nc3c(N)ccc4ccccc34)cc2S(=O)(=O)O)c(S(=O)(=O)O)c1 [SPI-01]	less significant effects	SUMO-2/3 conjugates accumulated in cells and this accumulation correlated with inhibitor concentration
1.9 ± 2.1		Nc1ccc2cc(S(=O)(=O)O)cc(S(=O)(=O)O)c2c1N=Nc1ccc(S(=O)(=O)O)cc1 [SPI-09]		
1.9 ± 2.2	> 60	Cc1cc(N)ccc1/N=N/c1cc(S(=O)(=O)O)c2cccc(S(=O)(=O)O)c2c1 [SPI-07]		
